Results from patent US8216777B2, “Compositions and methods for the treatment or prevention of chemoresistant neoplasia” (The Johns Hopkins University, priority 2006, dated 2012).

Key:
[1] = system: Renca renal carcinoma cells; test: cells; type: cell-based
Description: The effect of Nrf2 siRNA on the killing of Renca renal carcinoma cells was examined using etoposide, another widely used anticancer drug. To generate stable Renca cell lines that over-expressed Nrf2 siRNA and non-specific scramble siRNA (SC siRNA), the siRNA sequence was converted into short hairpin RNA (shRNA) and cloned in to a BLOCK-IT U6 RNAi Entry Vector (Invitrogen). The shRNA construct was packaged into a lentiviral vector, and transduced into Renca cell lines. Recombinants were selected with antibiotic. Renca cells stably expressing Nrf2 siRNA and non-specific LacZ siRNA were screened, and two clones expressing Nrf2 siRNA showing maximum knockdown of Nrf2 message were selected for further characterization. A cell viability assay was performed using these clones using etoposide as the chemotherapeutic drug. […] Cell viability was measured using the MTT [3-(4,5-dimethylthiazol-2-yl)-2,5-diphenyltetrazolium bromide] assay after 48 hours. Briefly, cells were transfected with 50 nM siRNAs two times within a 48 h interval and, 24 hours after the second transfection, cells were plated at a density of 7,500 cells/well in 180 μl of growth media in 96-well plates. […] After 96 h, drug cytotoxicity was evaluated by using a 3-(4,5-dimethylthiazol-2-yl)-2,5-diphenyl tetrazolium bromide (MTT; Sigma) reduction conversion assay. […]

Nrf2 = test: ARE-luciferase transcriptional reporter assay; type: cell-based, mice; conditions: Hepa cells stably transfected with pARE-luc; 5, 10, 50 μM
Procedure: In this example, a high throughput approach to screen different chemicals for their potency to inhibit Nrf2 activation is described. A cell based transcriptional reporter assay approach was used for the identification of agents that inhibit Nrf2 mediated transcription. Hepa cells, which are mice liver carcinoma cells, were stably transfected with the ARE-luciferase reporter vector, and plated on to 96 or […] well plates. After overnight incubation, the cells were pretreated for 1-3 hours with different compounds, and challenged with a known Nrf2 activator, sulforaphane and dibenzoylmethane (DBM). Luciferase activity was measured after 6 hours following the last treatment using a commercially available system.

Nrf2 mRNA = test: Nrf2 transcript degradation after siRNA transfection, real time TAQMAN PCR; type: cell-based, human; conditions: A549; for relative potency among the Nrf2 siRNA duplexes: Nrf2 transcript, 24 and 48 hours
Procedure: To study the degradation of Nrf2 mRNA with siRNA in a time dependent manner, a pooled mixture of the generated duplexes were transfected into A549 human non-small cell lung carcinoma cell line. As a control, a non-specific scrambled siRNA duplex (SC) was used. Transfection vehicle alone was also used as control. Total RNA was isolated after 24, 48 and 72 hours. The amount of Nrf2 transcript was measured using real time TAQMAN PCR. […] These five ND duplexes were again screened using the same assay to measure amount of Nrf2 transcript as described above.
Total RNA was extracted from lung tissues and or cells using RNeasy kit (Qiagen, Valencia Calif.) and was quantified by UV absorbance spectrophotometry. The reverse transcription reaction was performed by using the Superscript First Strand Synthesis system (Invitrogen, Carlsbad Calif.) in a final volume of 20 μl containing 2 μg of total RNA, 100 ng of random hexamers, 1× reverse transcription buffer, 2.5 mM MgCl2, 1 mM dNTP, 10 units of RNaseOUT, 20 units of Superscript reverse transcriptase, and DEPC-treated water. Quantitative real time RT-PCR analyses of Human KEAP1, NRF2, GCLc, GCLm, GSR, PRDX1, GSTA3, GSTA2, NQO1, MRP1 and MRP2 were performed by using assay on demand primers and probe sets from Applied Biosystems. Assays were performed by using the ABI 7000 Taqman system (Applied Biosystems, Foster City Calif.). β-ACTIN was used for normalization.
The siRNA sequence targeting NRF2 corresponds to the coding region 1903-1921 nt (5′-[…]-3′; SEQ ID NO:27) in the NRF2 cDNA. The NRF2 siRNA duplex with the following sense and antisense sequences was used: 5′-GUAAGAAGCCAGAUGUUAAdUdU (sense; SEQ ID NO:50) and dUd[…]-5′ (antisense; SEQ ID NO:28). To confirm the specificity of the inhibition, the siCONTROL non-targeting siRNA 1 (NS siRNA; 5′[…] 3′; SEQ ID NO:29) with microarray-defined signature was used as a negative control. All of the siRNA duplexes were synthesized by Dharmacon Research, Inc. (Lafayette). Cells in the exponential growth phase were plated at a density of 0.2×10^6 cells/ml, grown for 12 h, and transfected twice at an interval of 48 h with 50 nM siRNA duplexes using Lipofectamine 2000 and OPTI-MEMI reduced serum medium (Invitrogen, Carlsbad Calif.) according to the manufacturer's recommendations. Concentrations of siRNAs were chosen on the basis of dose-response studies.

## COc1cc([C@@H]2c3cc4c(cc3[C@@H](O[C@@H]3O[C@@H]5CO[C@@H](C)O[C@H]5[C@H](O)[C@H]3O)[C@H]3COC(=O)[C@H]23)OCO4)cc(OC)c1O [Etoposide, etoposide]
[1]; Renca, read-out: viable cells
  viability at 250 µM: ~100%
[1]; mouse, 48 h, 250 μM
  viability: −60%

## O=C(CC(=O)c1ccccc1)c1ccccc1 [dibenzoylmethane]
Nrf2
  luciferase activity: increase in luciferase activity

## C[S+]([O-])CCCCN=C=S (stereo not drawn) [sulforaphane]
Nrf2
  luciferase activity: increase in luciferase activity

## ND1: siRNA duplex, Nrf2 mRNA (NM_006164) position 1686-1704; sense SEQ ID NO: 1 CUAGAGCAAGAUUUAGAUCUU, antisense SEQ ID NO: 5 (antisense GAUCUAAAUCUUGCUCUAGUU; listed as RNA, chemistry not given here)
Nrf2 mRNA
  relative potency among the Nrf2 siRNA duplexes: most potent

## ND3: siRNA duplex, Nrf2 mRNA position 1903-1921; sense SEQ ID NO: 2 GUAAGAAGCCAGAUGUUAAUU, antisense SEQ ID NO: 6 (antisense UUAACAUCUGGCUUCUUACUU; listed as RNA, chemistry not given here)
Nrf2 mRNA
  relative potency among the Nrf2 siRNA duplexes: most potent
Nrf2 mRNA; after 24 and 48 hours, individual duplexes
  degradation of Nrf2 message: maximum message degradation

## ND4: siRNA duplex, Nrf2 mRNA position 1563-1581; sense SEQ ID NO: 3 AUGAUGUCCAAAGAGCAGUUU, antisense SEQ ID NO: 7 (antisense ACUGCUCUUUGGACAUCAUUU; listed as RNA, chemistry not given here)
Nrf2 mRNA
  relative potency among the Nrf2 siRNA duplexes: most potent

## ND5: siRNA duplex, Nrf2 mRNA position 1485-1463; antisense SEQ ID NO: 4 UUCAUCUCUUGUGAGAUGAGCCUCC, sense SEQ ID NO: 8 (sense GGAGGCUCAUCUCACAGAGAUGAA; listed as RNA, chemistry not given here)
Nrf2 mRNA
  relative potency among the Nrf2 siRNA duplexes: most potent
